The record followed here is patent publication US10463048B2, “Plant disease control composition and plant disease control method” (SUMITOMO CHEMICAL COMPANY, LIMITED, priority 2015, dated 2019).

Common to all, as to format: in vivo
What all share (conditions): 20 days after

Experiment [1] has as its system phytopathogenic Fusarium (Fusarium sp.). The experiment can be described thus: Test Example 23: soybean seed treatment, Fusarium pot test. How it is done: (§1) If the effect by the combination of two active ingredients is greater than that of the estimated value E, which is calculated by the Colby's equation as follows, the effect is regarded as synergistic. E=X+Y−X·Y/100 wherein, E=Control value when using the mixture of the active ingredients A and B at the concentrations m and n (amount of the active ingredient), respectively. X=Control value when using the active ingredient A at the concentration m (amount of the active ingredient). Y=Control value when using the active ingredient B at the concentration n (amount of the active ingredient).
Boscalid was dissolved in acetone/Tween 20 (weight ratio=95:5) to prepare a chemical liquid. In a rotary seed treatment machine (trade name: HEGE11, manufactured by WINTERSTEIGER), soybean seeds (variety:“Hatayutaka”) were treated by smearing treatment using the chemical liquid and the flowable formulation of the present bacterial strain obtained in Formulation Example 13 and sedaxane flowable formulation (43.7% flowable formulation, trade name: Vibrance, Syngenta Crop Protection LLC), so that the soybean seeds retain the bacteria, sedaxane and boscalid in the amount shown in Table 8.
Cultivation was carried out in a greenhouse under irrigation (“treated compartment”). The plants were investigated 20 days after for the number of diseased plants, and the disease incidence was calculated by the following “Equation 1”. Also, similar procedures were conducted using untreated soybean seeds, instead of the treated soybean seeds, as described above for the treated compartment (“untreated compartment”).
The plants were investigated 20 days after for the number of diseased plants, and the disease incidence was calculated by the following “Equation 1”. The control value of the treated compartment was calculated by the following equation “Equation 2”, based on the disease incidences of the treated compartment and the untreated compartment. Disease incidence (%)=100×(number of diseased plant/total number of seeded seeds): Equation 1 Control value (%)=100×[(disease incidence in untreated compartment−disease incidence in treated compartment)/disease incidence in untreated compartment]: Equation 2

Experiment [2] has the same test system. Briefly: Test Example 22: soybean seed treatment, Fusarium pot test. On the procedure: If the effect by the combination of two active ingredients is greater than that of the estimated value E, which is calculated by the Colby's equation as follows, the effect is regarded as synergistic. E=X+Y−X·Y/100 wherein, E=Control value when using the mixture of the active ingredients A and B at the concentrations m and n (amount of the active ingredient), respectively. X=Control value when using the active ingredient A at the concentration m (amount of the active ingredient). Y=Control value when using the active ingredient B at the concentration n (amount of the active ingredient). […]
Cultivation was carried out in a greenhouse under irrigation (“treated compartment”). The plants were investigated 20 days after for the number of diseased plants, and the disease incidence was calculated by the following “Equation 1”. […] The plants were investigated 20 days after for the number of diseased plants, and the disease incidence was calculated by the following “Equation 1”. The control value of the treated compartment was calculated by the following equation “Equation 2”, based on the disease incidences of the treated compartment and the untreated compartment. […]

Experiment [3] relates to damping-off fungus (Rhizoctonia solani). Briefly: Test Example 21: corn seed treatment, damping-off pot test. How it is done: A chemical liquid wherein penflufen is dissolved in acetone/Tween 20 (weight ratio=95:5) and a chemical liquid wherein fluxapyroxad is dissolved in acetone/Tween 20 (weight ratio=95:5) were prepared independently. In a rotary seed treatment machine (trade name: HEGE11, manufactured by WINTERSTEIGER), corn seeds (variety: yellow dent corn) were treated by smearing treatment using one of these chemical liquid and the flowable formulation of the present bacterial strain obtained in Formulation Example 13, so that the corn seeds retain the present bacterial strain and/or the compound in the amount shown in Table 6.
Cultivation was carried out in a greenhouse under irrigation (“treated compartment”). The plants were investigated 20 days after for the number of diseased plants, and the disease incidence was calculated by the following “Equation 1”. Similar procedures were conducted using untreated corn seeds, instead of the treated corn seeds, as described above for the treated compartment (“untreated compartment”). The plants were investigated 20 days after for the number of diseased plants, and the disease incidence was calculated by the following “Equation 1”. The control value of the treated compartment was calculated by the following equation “Equation 2”, based on the disease incidences of the treated compartment and the untreated compartment. Disease incidence (%)=100×(number of diseased plant/total number of seeded seeds): Equation 1 Control value (%)=100×[(disease incidence in untreated compartment−disease incidence in treated compartment)/disease incidence in untreated compartment]: Equation 2
as §1

Setting [4] is: soybean seeds retaining 0.05 g/Kg seeds of compound alone.
[5] abbreviates: corn seeds retaining 0.005 g/Kg seeds of compound alone.

Turning to `O=C(Nc1ccccc1-c1ccc(Cl)cc1)c1cccnc1Cl` [Boscalid, boscalid], the “Controlling Effect” value is reported as 23% in experiment [1] (setting [4]) and 47% in experiment [1] (soybean seeds retaining 0.1 g/Kg seeds of compound alone).

With `O=C(NCCc1ncc(C(F)(F)F)cc1Cl)c1ccccc1C(F)(F)F` [Fluopyram, fluopyram], the “Controlling Effect” value in experiment [2] (soybean seeds retaining 0.025 g/Kg seeds of compound alone) amounted to 29%; in experiment [2] (setting [4]), 44%.

Consider `Cn1cc(C(=O)Nc2ccccc2-c2cc(F)c(F)c(F)c2)c(C(F)F)n1` [Fluxapyroxad, fluxapyroxad], for which the entries for the “Controlling Effect” value in experiment [3] (corn seeds retaining 0.0025 g/Kg seeds of compound alone) and in experiment [3] (setting [5]) were 31% and 39%, respectively.

`Cc1nn(C)c(F)c1C(=O)Nc1ccccc1C(C)CC(C)C` (stereo not shown) [Penflufen, penflufen]: the results for the “Controlling Effect” value in experiment [3] (setting [5]) and in experiment [3] (corn seeds retaining 0.01 g/Kg seeds of compound alone) were 25% and 42%, respectively.

For `Cn1cc(C(=O)Nc2ccccc2C2CC2C2CC2)c(C(F)F)n1` (stereo not shown) [Sedaxane, sedaxane], the entries for the “Controlling Effect” value in experiment [1] (soybean seeds retaining 0.005 g/Kg seeds of compound alone) and in experiment [1] (soybean seeds retaining 0.01 g/Kg seeds of compound alone) were 32% and 35%, respectively.
